Results on one substance are retold here after patent EP0406628A1, “Monoclonal antibody against endothelin, hybridoma capable of producing the same and radioimmunoassay for endothelin by using the same” (SHIONOGI & CO., LTD., priority 1989, dated 1991).

In the assay the test system is isolated rat aortic strips. Kind of assay: Neutralization experiment: contractile response of isolated rat aortic strips to ET-1. The conditions noted are these: synthetic ET-1 alone. How it is done:
Contractile responses of rat aortic strips were performed as previously reported (Toda, S., Nakajima, S., Miyazaki, M., Ueda, M.: Vasodilation induced by pinacidil in dogs _ comparison with hydralizine and nifedipine. J. Cardiovasc. Pharmacol. 1985;7:1118-1126). Aortic strips were incubated in an organ bath perfused at 37°C with balanced salt solution containing 139.7 mEq Na⁺, 5.4 mEq K⁺, 2.2 mEq Ca²⁺, 1.0 mEq Mg²⁺, 131.5 mEq Cl⁻ and 20 mEq HCO₃⁻. Purified monoclonal antibody (0.05 µg/ml - 5 µg/ml) was added 3 min before the ET-1 administration.

Bridge positions count the residues as written; N and C are the ends. Ends that are not written are not given here.

Turning to “ET-1: endothelin-1, purchased from Peptide Institute Inc.; original form isolated from culture medium of porcine aortic endothelial cells (CSCSSLMDKECVYFCHLDIIW; disulfide 1-15, 3-11; ends not checked; UniProt P05305 53-73, looked up)”, the vasoconstriction entry is given as “induced a vasoconstriction in isolated rat aortic strips in a dose-dependent manner”.
